In US12076304B2, “Compositions comprising 15-HEPE and methods of treating or preventing hematologic disorders, and/or related diseases” (priority 2020, dated 2024):
Marks after values point to notes of the source that are not given here.

Experiments:
[1] = tested on: TGF-β induced epithelial mesenchymal transition (EMT) protein production; experiment: TGF-β induced EMT protein production in HepG2 cells; assay type: cell-based, human; settings: increasing doses for 1 hour, then 200 pM TGF-β for 48 hours
Experimental: (§1) The effects of 15-HEPE on TGF-β-induced signaling and cellular responses were determined. To test the effect of 15-HEPE on TGF-β-induced signaling, the activities of 15-HEPE to regulate TGF-β-stimulated Smad2 phosphorylation and nuclear translocation, both of which are key signaling events leading to TGF-β-induced cellular responses, were tested. One important biological activity of TGF-β is transcriptional activation of genes responsible for epithelial-mesenchymal transition (EMT), which is a crucial event in wound healing, tissue fibrosis, and cancer progression. The effect of 15-HEPE on TGFβ-induced epithelial mesenchymal transition related proteins (such as fibronectin, PAI-1, and N-cadherin etc.) expression in HepG2 and LXR cells were assessed. HepG2 cells (human hepatoma cell line) were treated in increasing doses of 15-HEPE stage II in DMEM containing 0.1% of FBS for 1 hour and continually stimulated with or without 200 picomolar (pM) of TGF-β for 48 hours.
(§2) HepG2 cells (human hepatoma cell line) were treated in increasing doses of 15-HEPE stage II in DMEM containing 0.1% of FBS for 1 hour and continually stimulated with or without 200 picomolar (pM) of TGF-β for 48 hours. The two panels shown in FIG. 18A are two separate experiments run under the same experimental conditions.

[2] = tested on: TGF-β-stimulated intracellular signaling (SMAD2/3 phosphorylation); experiment: TGF-β-stimulated SMAD2/3 phosphorylation in LX2 liver stellate cells; assay type: cell-based, human; settings: 0 μM to 100 μM for 24 hours, then 30 min TGF-β
[3] = tested on: TβR-II (type II TGF-β receptor); experiment: Sucrose density gradient analysis in Mv1Lu cells, TβR-II; assay type: cell-based, mink; settings: for translocation and degradation of type II TGF-β receptors: summary of Example 3, free acid or ethyl ester form
Experimental: (§3) Sucrose gradient ultracentrifugation and confocal microscopy were used to identify 15-HEPE induced microdomain translocation of TGF-β receptors […]. Sucrose density gradient analysis of TGF-β receptors was conducted in the plasma membranes of Mv1Lu cells (mink lung epithelial cell) treated with 100 μM of 15-HEPE and an equal volume of DMSO (dimethyl sulfoxide) at 37° C. for 0, 1, 4, and 24 hours, and the cell lysates from these treated cells were subjected to sucrose density gradient ultracentrifugation. The sucrose gradient fractions were then analyzed by Western blot analysis using anti-Tβ(type I TGF-β receptor), anti-TβR-II (type II TGF-β receptor), anti-TβR-III (type III TGF-β receptor, betaglycan), anti-EGFR (epidermal growth factor receptor), and anti-caveolin-1 antibodies. The lipid raft/caveolae, and non-lipid raft microdomain localization of TβR-I, TβR-II, TβR-III, EGFR and caveolin-1 in the plasma membrane of untreated cells or cells treated with 15-HEPE were assessed to determine the effects of 15-HEPE on the membrane microdomain localization of the TGF-β receptors.
A 15-HEPE sucrose density gradient analysis of TGF-β receptors was conducted in the plasma membranes of mink lung epithelial cell (Mv1 Lu) cells treated with 100 μM of 15-HEPE and an equal volume of dimethyl sulfoxide (DMSO) at 37° C. for 0, 1, 4, and 24 hours, and the cell lysates from these treated cells were subjected to sucrose density gradient ultracentrifugation. The sucrose gradient fractions were then analyzed by Western blot analysis using anti-TβR-I (type I TGF-β receptor—FIG. 18C), anti-TβR-II (type II TGF-β receptor-FIG. 18D), anti-TβR-III (type III TGF-β receptor, betaglycan-FIG. 18E), anti-EGFR (epidermal growth factor receptor-FIG. 18F), and anti-caveolin-1 antibodies (FIG. 18G). Fractions 4 to 5 contained lipid rafts/caveolae whereas fractions 7-10 were non-lipid raft fractions. […] Stars(*) indicate 15-HEPE increased abundance of TβR-I (24 hours) in the fraction in comparison with that of the control and shorter treatment durations (FIG. 18C). […] The triangles (▾) indicate translocation and decreased abundance of TβR-II in the fraction in comparison with control cells (FIG. 18D).

[4] = molecular target: T1, type II TGF-β receptor (Homo sapiens, UniProt P37173); experiment: Type II TGF-β receptor degradation in HepG2 cells; assay type: cell-based; settings: increasing doses for 1 hour, then 200 pM TGF-β for 48 hours
T1 construct: endogenous in cells; host or cells: HepG2
Experimental: as §1, §2

[5] = tested on: TβR-I (type I TGF-β receptor); experiment: Sucrose density gradient analysis in Mv1Lu cells, TβR-I; assay type: cell-based, mink; settings: 100 μM
Experimental: as §3, with “receptors. […]” for “receptors.”

[6] = tested on: TβR-III (type III TGF-β receptor, betaglycan); experiment: Sucrose density gradient analysis in Mv1Lu cells, TβR-III; assay type: cell-based, mink; settings: 100 μM, 0-24 hours
Experimental: as §3, with “receptors. […]” for “receptors.”

[7] = tested on: EGFR (epidermal growth factor receptor); experiment: Sucrose density gradient analysis in Mv1Lu cells, EGFR; assay type: cell-based, mink; settings: 100 μM, 0-24 hours
Experimental: as §3, with “receptors. […]” for “receptors.”

[8] = tested on: caveolin-1; experiment: Sucrose density gradient analysis in Mv1Lu cells, caveolin-1; assay type: cell-based, mink; settings: 100 μM, 0-24 hours
Experimental: as §3, with “receptors. […]” for “receptors.”

[9] = tested on: Sprague Dawley rats; experiment: 26 week oral gavage toxicity study in rats: haematology; assay type: in vivo; settings: 26 weeks; for Red blood cell count (RBC), Mean / Red Cell Distribution Width (RDW), Mean / Reticulocyte count (RETIC), Mean: male rats; for Red blood cell count (RBC), Mean: vehicle 8.38; for Red Cell Distribution Width (RDW), Mean: vehicle 14.98; for Reticulocyte count (RETIC), Mean: vehicle 219.51
Experimental: (§4) The test and control items were administered to the appropriate animals by once daily oral gavage 7 days a week for a minimum of 26 weeks. The volume for each animal was based on the most recent body weight measurements. The doses were given using a syringe with attached gavage cannula. The first day of dosing was designated as Day 1. The dosing formulations were removed from the refrigerator and stirred for at least 30 minutes before dosing. The dosing formulations were also stirred continuously during dosing.
(§5) Sample Collection: Blood was collected via the tail vein unless immediately prior to necropsy, when blood was collected from the orbital sinus under non-recoverable isoflurane anesthesia. Blood was collected in ascending animal order unless samples were collected prior to necropsy where the order of euthanasia was followed. Additional blood samples were obtained (e.g. due to clotting of non-serum samples) if permissible sampling frequency and blood volume were not exceeded. After collection, samples were transferred to the appropriate laboratory for processing. Samples were collected according to the following table.
Hematology: A 0.5 mL blood sample was collected using the anticoagulant K2EDTA. Blood smears were labelled, stained, and stored. The blood smears were analyzed according to the following parameters.
(§6) Animals: The study used male and female Sprague Dawley rats purchased from Charles River UK Limited (Margate, Kent, UK). The target age at the initial dosing was 7-8 weeks. The target weight at the initial dosing was 175-300 g (males) and 120-250 g (females). Each animal was identified using a subcutaneously implanted electronic cylindrical, “glass-sealed” TROVAN microchip.

[10] = tested on: Sprague Dawley rats; experiment: 26 week oral gavage toxicity study in rats: coagulation; assay type: in vivo; settings: 26 weeks; for Fibrinogen (FIB), Mean / Prothrombin Time (PT), Mean / Activated Partial Thromboplastic Time (APTT), Mean: male rats; for Fibrinogen (FIB), Mean: vehicle 2.61; for Prothrombin Time (PT), Mean: vehicle 10.25; for Activated Partial Thromboplastic Time (APTT), Mean: vehicle 12.92; for APTT compared to control / FIB concentration compared to control / PT compared to control: rats
Experimental: as §4, §5
Coagulation: A 0.5 mL blood sample was collected using the anticoagulant 3.8% (w/v) trisodium citrate for processing to plasma. To assess coagulation the following coagulation parameters were measured.
as §6

[11] = tested on: Sprague Dawley rats; experiment: 26 week oral gavage toxicity study in rats: tolerability, clinical signs; assay type: in vivo; settings: 6 g/kg/day oral gavage, replaced with 3 g/kg/day
Experimental: as §4
Due to the onset of clinical signs, including hunched posture, erect fur and abnormal gait and body weight loss, animals 3206M, 3515F and 3703F were given a dosing holiday from Day 45 and remaining Group 3 animals were given a dosing holiday from Day 48. Animals will start dosing at the lower dose level (3000 mg/kg/day) from Day 64. The following tables illustrate the treatments (Table 23) and animal groupings (Table 24) that were used in the study.
Mortality/moribundity checks were made daily. […] Animals were not removed from the cage during observation, unless necessary for identification or confirmation of possible findings.
Post-dose observations were made regularly throughout the day. […] The onset, intensity, and duration of these signs were recorded; particular attention was paid to the animals during and for the first hour after dosing. […]

[12] = tested on: rats; settings: oral once daily, 26 weeks, highest dose tested 1 mg/kg/day; cited from earlier work
[13] = 0.5% HPMC dosing formulations; same preparation and storage conditions (4° C.); concentrations bracketing those used; cited from earlier work
[14] = 6000/3000 mg/kg/day oral gavage

T1 sequence (P37173 23-567): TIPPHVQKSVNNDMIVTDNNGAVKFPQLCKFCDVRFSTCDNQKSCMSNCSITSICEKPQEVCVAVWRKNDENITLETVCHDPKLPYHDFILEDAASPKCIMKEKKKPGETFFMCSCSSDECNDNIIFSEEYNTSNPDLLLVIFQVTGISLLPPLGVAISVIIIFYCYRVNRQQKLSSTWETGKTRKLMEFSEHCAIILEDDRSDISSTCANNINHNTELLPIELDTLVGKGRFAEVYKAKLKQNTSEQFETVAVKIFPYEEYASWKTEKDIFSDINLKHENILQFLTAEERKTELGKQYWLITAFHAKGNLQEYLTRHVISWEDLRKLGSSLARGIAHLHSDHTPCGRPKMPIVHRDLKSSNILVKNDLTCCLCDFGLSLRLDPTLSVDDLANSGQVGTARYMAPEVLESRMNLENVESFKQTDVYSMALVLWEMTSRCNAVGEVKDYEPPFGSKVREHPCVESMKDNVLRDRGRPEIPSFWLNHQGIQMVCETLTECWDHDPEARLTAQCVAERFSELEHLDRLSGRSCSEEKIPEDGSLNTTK

With `CC/C=C\C[C@H](O)/C=C/C=C\C/C=C\C/C=C\CCCC(=O)OCC` [15-HEPE EE, 15-HEPE ethyl ester] the “TGF-β induced EMT (pro-fibrotic) protein production” value [1] was “blocked”, the “TGF-β-stimulated intracellular signaling (SMAD2/3 phosphorylation)” value [2] was “inhibited” and the “translocation and degradation of type II TGF-β receptors” value [3] was “induced translocation and degradation”.

For `CC/C=C\CC(O)/C=C/C=C\C/C=C\C/C=C\CCCC(=O)O` (stereo not shown) [15-HEPE, 15-hydroxy-eicosa-5Z,8Z,11Z,13E,17Z-pentaenoic acid], the “TGF-β induced EMT (pro-fibrotic) protein production” value [1] was “blocked”, the “degradation of type II TGF-β receptor” value [4] was “induced degradation” and the “TGF-β-stimulated intracellular signaling (SMAD2/3 phosphorylation)” value [2] was “inhibited”. For the same compound, the “abundance of TβR-I proteins” value ([5]; 37° C., 0, 1, 4, 24 hours) was “did not affect”, the “translocation of TβR-I to lipid-raft” value ([5]; 24 hours treatment) was “induced translocation” and the TβR-II degradation ([3]; Mv1Lu cells, 100 μM, 24 hours treatment) was “induce degradation”. The TβR-II translocation ([3]; Mv1Lu cells, 100 μM, from 1 to 4 hours) was “induced TβR-II translocation”, the “translocation and degradation of type II TGF-β receptors” value [3] was “induced translocation and degradation” and the “localization and abundance of TβR-III” value [6] was “did not change”. The “localization and abundance of EGFR” value [7] was “did not change” and the “localization and abundance of caveolin-1” value [8] was “did not change”.

In the case of `CC/C=C\C[C@H](O)/C=C/C=C\C/C=C\C/C=C\CCCC(=O)OCC` [15(S)-HEPE EE], the “Red blood cell count (RBC), Mean” value ([9]; 2000 mg/kg/day oral gavage) was 8.67 10^∧12/L, the “Red Cell Distribution Width (RDW), Mean” value ([9]; 2000 mg/kg/day oral gavage) was 13.91** % and the “Reticulocyte count (RETIC), Mean” value ([9]; 2000 mg/kg/day oral gavage) was 154.60* 10^∧9/L. The “Red blood cell count (RBC), Mean” value [9, 14] was 8.81** 10^∧12/L, the “Red Cell Distribution Width (RDW), Mean” value [9, 14] was 13.60** % and the “Reticulocyte count (RETIC), Mean” value [9, 14] was 141.46** 10^∧9/L. The “RDW compared to control” value ([9]; rats, 2 g/kg/day dose) was “significant decrease”, the “RETIC compared to control” value ([9]; rats, 2 g/kg/day dose) was “significant decrease” and the “RBC compared to control” value ([9]; rats, 3 g/kg/day dose) was “significant increase”. For the same compound, the “RDW compared to control” value ([9]; rats, 3 g/kg/day dose) was “significant decrease”, the “RETIC compared to control” value ([9]; rats, 3 g/kg/day dose) was “significant decrease” and the “Fibrinogen (FIB), Mean” value ([10]; 2000 mg/kg/day oral gavage) was 2.35** g/L. For the same compound, the “Prothrombin Time (PT), Mean” value ([10]; 2000 mg/kg/day oral gavage) was 10.69** sec, the “Activated Partial Thromboplastic Time (APTT), Mean” value ([10]; 2000 mg/kg/day oral gavage) was 15.03* sec and the “Fibrinogen (FIB), Mean” value [10, 14] was 2.26** g/L. The “Prothrombin Time (PT), Mean” value [10, 14] was 10.81** sec, the “Activated Partial Thromboplastic Time (APTT), Mean” value [10, 14] was 15.73** sec and the “APTT compared to control” value ([10]; 2 g/kg/day dose) was “significant increase”. The “FIB concentration compared to control” value ([10]; 2 g/kg/day dose) was “significant decrease”, the “PT compared to control” value ([10]; 2 g/kg/day dose) was “significant increase” and the “APTT compared to control” value ([10]; 3 g/kg/day dose) was “significant increase”. For the same compound, the “FIB concentration compared to control” value ([10]; 3 g/kg/day dose) was “significant decrease”, the “PT compared to control” value ([10]; 3 g/kg/day dose) was “significant increase” and the “tolerability of the highest dose” value [11] was “not well tolerated”. The “adverse effects at the highest dose tested” value [12] was “no adverse effects” and the “stability of the test item in the vehicle” value [13] was “stable”.
